The text below walks through data of patent publication US9126979B2, “Compounds for inhibiting the interaction of BCL2 with binding partners” (Novartis AG, priority 2011, dated 2015).

Assay [1] has as its target BCL-2 binding to biotinylated BAK peptide (Homo sapiens (Human), UniProt P10415). The experiment in a line: SPR (Biacore) solution inhibition assay, BCL-2 binding to BAK peptide surface. Particulars: read-out: BCL2_SPR IC50 BAK. The text has this:
(§1) The present method includes utility of a Surface plasmon resonance (SPR)-based biosensor (Biacore™′ GE Healthcare, Uppsala, Sweden) to characterize BCL-2 inhibitors.
(§2) Biacore™ utilizes the phenomenon of surface plasmon resonance (SPR) to detect and measure binding interactions. In a typical Biacore experiment, one of the interacting molecules (ligand) is immobilized on a flexible dextran matrix while the interacting partner (analyte) is allowed to flow across that surface. A binding interaction results in an increase in mass on the sensor surface and a corresponding direct change in the refractive index of the medium in the vicinity of the sensor surface. Changes in refractive index or signal are recorded in resonance units (R.U.) Signal changes due to association and dissociation of complexes are monitored in a non-invasive manner, continuously and in real-time, the results of which are reported in the form of a sensorgram.
(§3) The SPR assay is configured to examine solution inhibition of BCL-2 binding to peptide derivatized sensor surfaces to generate IC50 values as a measure of inhibitor potency.
(§4) Biacore™ A100 (GE Healthcare, Uppsala, Sweden) was used to conduct all experiments reported herein. Sensor surface preparation and all interaction analyses experiments were performed at 25° C. Reagents were purchased from GE Healthcare. Running buffer containing 10 mM Hepes, pH7.4, 150 mM sodium chloride, 1.25 mM Dithiothreitol, 3% Dimethyl sulfoxide and 0.05% polysorbate 20 were utilized throughout all analyses.
(§5) Biotinylated BAK, BAD and NOXA peptides were diluted to 10 nM in running buffer and captured onto a sensor surface pre-derivatized with streptavidin (sensor chip SA) to peptide surface densities in the range 50-100 R.U. Peptide captured surfaces were blocked with 50004 PEO2-Biotin.
(§6) Interaction analyses were performed by first equilibrating each sample within a 6 point three fold compound dilution series in the range […] with 56 nM BCL-2 for one hour during instrument start-up procedures. Protein compound mixtures were then injected over each peptide surface in parallel for 60 seconds at a flow-rate of 30 μL/min. 56 nM BCL-2 control samples were also prepared and run at regular intervals during the assay. Surface regeneration was performed at the end of each analysis cycle by two 30 second injections of 10 mM Glycine, pH 2.5, 1M Sodium Chloride, 0.05% polysorbate 20. Samples and control compound samples were run in duplicate and controls are also run at regular intervals during the assay to monitor surface and assay performance.
(§7) Data analyses are carried out using Biacore™ A100 evaluation software v1.1 to validate assay quality. Binding level report points were used relative to BCL-2 control samples to calculate % inhibition values for each compound protein mixture. […] The range of data shown in table 1 represents the high and low IC50 values obtained from multiple experiments.

In assay [2] the target is BCL-2 binding to biotinylated BAD peptide (Homo sapiens (Human), UniProt P10415). The experiment in a line: SPR (Biacore) solution inhibition assay, BCL-2 binding to BAD peptide surface. Particulars: read-out: BCL2_SPR IC50 BAD.
Chain of BCL-2 binding to biotinylated BAD peptide (P10415 whole entry): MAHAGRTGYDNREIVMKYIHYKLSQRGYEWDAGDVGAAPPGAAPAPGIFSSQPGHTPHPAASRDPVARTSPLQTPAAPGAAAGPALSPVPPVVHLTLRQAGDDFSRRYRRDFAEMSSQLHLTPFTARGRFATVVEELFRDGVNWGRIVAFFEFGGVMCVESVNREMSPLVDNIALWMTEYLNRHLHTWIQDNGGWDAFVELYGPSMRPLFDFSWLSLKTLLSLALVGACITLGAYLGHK
Excerpt: as §1, §2, §3, §4, §5, §6, §7
A general note: In SPR one partner is held on a chip, and binding of the other changes the refractive index at the surface.

Chain of BCL-2 binding to biotinylated BAK peptide (P10415 whole entry): as above

For `CCCCN(CCCC)C(=O)c1cc(C)n(-c2cc(OCC(=O)Nc3ccccc3F)ccc2C(=O)N2Cc3ccccc3C[C@H]2CO)n1` [Example 8], the values for the IC50 in assay [1] and in assay [2] were 1.7 to 1.74 µM and 2.88 to 3 µM, respectively.
For `CCCCN(CCCC)C(=O)c1nn(-c2ccc(OCC(=O)O)cc2C(=O)N2Cc3ccccc3C[C@H]2CO)c(C)c1Cl` [Example 2, [4-(4-Chloro-3-dibutylcarbamoyl-5-methyl-pyrazol-1-yl)-3-((S)-3-hydroxymethyl-3,4-dihydro-1H-isoquinoline-2-carbonyl)-phenoxy]-acetic acid] the same measures were 0.132 to 0.138 µM and 0.149 to 0.153 µM.
As to `CCCCN(CCCC)C(=O)c1cc(C)n(-c2cc(OCC(=O)Nc3ccccc3)ccc2C(=O)N2Cc3ccccc3C[C@H]2CO)n1` [Example 6, 1-[2-((S)-3-Hydroxymethyl-3,4-dihydro-1H-isoquinoline-2-carbonyl)-5-phenylcarbamoylmethoxy-phenyl]-5-methyl-1H-pyrazole-3-carboxylic acid dibutylamide], the values for the IC50 in assay [1] and in assay [2] were 1.27 to 1.3 µM and 2.09 to 2.1 µM, respectively.
For `CCCCN(CCCC)C(=O)c1nn(-c2ccc(O)cc2C(=O)N2Cc3ccccc3C[C@H]2CO)c(C)c1Cl` [Example 9], the IC50 (as a rule, the point on the concentration scale where inhibition reaches its midpoint) in assay [1] was in the range of 0.403 to 0.441 µM; in assay [2], 0.618 to 0.629 µM.
In the case of `CCCCN(CCCC)C(=O)c1cc(C)n(-c2cc(OCC(=O)OCc3ccccc3)ccc2C(=O)N2Cc3ccccc3C[C@H]2CO)n1` [Example 7, [3-(3-Dibutylcarbamoyl-5-methyl-pyrazol-1-yl)-4-((S)-3-hydroxymethyl-3,4-dihydro-1H-isoquinoline-2-carbonyl)-phenoxy]-acetic acid benzyl ester], the IC50 lay within 1.25 to 1.32 µM in assay [1] and 1.52 to 1.56 µM in assay [2].
For `CCCCN(CCCC)C(=O)c1cc(C)n(-c2cc(OCC(=O)OCC)ccc2C(=O)N2Cc3ccccc3C[C@H]2CO)n1` [Example 4, [3-(3-Dibutylcarbamoyl-5-methyl-pyrazol-1-yl)-4-((S)-3-hydroxymethyl-3,4-dihydro-1H-isoquinoline-2-carbonyl)-phenoxy]-acetic acid ethyl ester] the same measures were 0.771 to 0.776 µM and 1.17 to 1.36 µM.
Regarding `CCCCN(CCCC)C(=O)c1nn(-c2ccc(OCC(=O)Nc3ccccc3)cc2C(=O)N2Cc3ccccc3C[C@H]2CO)c(C)c1Cl` [Example 3, 4-Chloro-1-[2-((S)-3-hydroxymethyl-3,4-dihydro-1H-isoquinoline-2-carbonyl)-4-phenylcarbamoylmethoxy-phenyl]-5-methyl-1H-pyrazole-3-carboxylic acid dibutylamide], the IC50 in assay [1] lay within 0.406 to 0.437 µM; in assay [2], 0.433 to 0.477 µM.
As for `CCCCN(CCCC)C(=O)c1cc(C)n(-c2cc(OC)ccc2C(=O)N2Cc3ccccc3C[C@H]2CO)n1` [Example 12], the IC50 in assay [1] lay within 0.267 to 0.299 µM; in assay [2] it was 0.447 to 0.493 µM.
For `CCCCN(CCCC)C(=O)c1nn(-c2ccc(OCC(=O)OCC)cc2C(=O)N2Cc3ccccc3C[C@H]2CO)c(C)c1Cl` [Example 1, [4-(4-Chloro-3-dibutylcarbamoyl-5-methyl-pyrazol-1-yl)-3-((S)-3-hydroxymethyl-3,4-dihydro-1H-isoquinoline-2-carbonyl)-phenoxy]-acetic acid ethyl ester], in that order: 0.363 to 0.405 µM and 0.509 to 0.515 µM.
In the case of `CCCCN(CCCC)C(=O)c1nn(-c2ccc(OC)cc2C(=O)N2Cc3ccccc3C[C@H]2CO)c(C)c1Cl` [Example 10], the values for the IC50 in assay [1] and in assay [2] were 0.815 to 0.969 µM and 1.37 to 1.69 µM, respectively.
For `CCCCN(CCCC)C(=O)c1cc(C)n(-c2cc(O)ccc2C(=O)N2Cc3ccccc3C[C@H]2CO)n1` [Example 11], in that order: 0.238 to 0.256 µM and 0.258 to 0.299 µM.
With `CCCCN(CCCC)C(=O)c1cc(C)n(-c2cc(OCC(=O)O)ccc2C(=O)N2Cc3ccccc3C[C@H]2CO)n1` [Example 5, [3-(3-Dibutylcarbamoyl-5-methyl-pyrazol-1-yl)-4-((S)-3-hydroxymethyl-3,4-dihydro-1H-isoquinoline-2-carbonyl)-phenoxy]-acetic acid], the 50% inhibitory concentration (IC50) in assay [1] lay within 0.0823 to 0.0873 µM; in assay [2], 0.0989 to 0.105 µM.
